Source: ChEMBL document CHEMBL3603749, “Ligand efficient tetrahydro-pyrazolopyridines as inhibitors of ERK2 kinase” (Bioorg Med Chem Lett, 2015)

System: Caco-2
Assay: Permeability of the compound from apical to basolateral side in human Caco2 cells
Assay type: ADME, cell-based

Row | Structure (SMILES) | permeability
1 | CS(=O)(=O)c1cccc(Cn2ccc(N3CCc4[nH]nc(-c5ccncc5)c4C3)cc2=O)c1 | impermeable
2 | O=c1cc(N2CCc3[nH]nc(-c4ccncc4)c3C2)cc[nH]1 | permeable
